The source of these data is patent US20250129080A1, “COMPOSITIONS AND METHODS OF USING THE SAME FOR TREATMENT OF NEURODEGENERATIVE AND MITOCHONDRIAL DISEASE” (Mitokinin, Inc., priority 2021, published 2025).

As a reminder, the pEC50 is the EC50 on a negative log10 scale, so that one unit is a factor of ten.

In one data set the test system is SKOV3 cells. Nature of the data set: In vitro mitosafety (glucose/galactose) assay. The format is cell-based. The settings on record: highest mito-safe dose (gal/glc >0.80, IC20, SKOV3 cells, 20 hours) divided by mt-Keima EC50.
In data set [1] the test system is HeLa cells expressing mt-Keima and YFP-Parkin (HeLa MKYP). Nature of the data set: Human mt-Keima mitophagy assay. The format is cell-based. The settings on record: Homo sapiens, HeLa, 16 hrs with compound, then FCCP/oligomycin for 6 hours, FACS. Here is the method: Briefly, HeLa cells expressing mt-Keima and YFP-Parkin (HeLa MKYP) were plated at 10,000 cells/well in 96 well plates along with compounds at various concentrations. Following 16 hrs of incubation, cells were treated with […] FCCP/oligomycin for 6 hours, then analyzed via FACS for the presence of mitochondria in lysosomes (as determined by an emissions spectrum shift from the pH-sensitive mt-Keima tag).

pEC50: −log10 of the molar value.

Protocol for SKOV3 cells: Briefly, SKOV3 cells (ATCC HTB-77) were plated in DMEM (Corning 10-013-CV) medium containing 25 mM glucose or DMEM with no glucose (Gibco 11966-025) supplemented with 10 mMV galactose at 9,000 cells/well in 96 well plates (Corning costar 3610). 24 hrs later, compounds, in DMSO, were added at various concentrations to a final 0.1% DMSO for all wells. […] After a 15 minute incubation cellular ATP levels were read out using a Promega GloMax® DiscoverMicroplate Reader.
The ratio of relative CellTiter-Glo values from cells grown in galactose to cells grown in glucose was determined (gal/glc ratio). The gal/glc ratio vs concentration is then graphed, and non-linear regression is used to find the highest concentration of MTK compound at which gal/glc >0.80 (the “highest mito-safe dose”, or IC20).

In the case of `Fc1ccc2c(c1)OC[C@H](N1CCOC3(CC3)C1)[C@H]2Nc1ncnc2[nH]c(C(F)(F)F)cc12` [EP-0043834, N-((3R,4S)-7-fluoro-3-(4-oxa-7-azaspiro[2.5]octan-7-yl)chroman-4-yl)-6-(trifluoromethyl)-7H-pyrrolo[2,3-d]pyrimidin-4-amine], the “Mito-Safety Index (highest safe dose/EC50)” value (“Mito-Safety Index” for short) in the data set with SKOV3 cells was 40.9. Further, the negative-log EC50 (pEC50) in data set [1] was 6.25.
The like results for `Fc1ccc2c(c1)OC[C@H](N1CC[C@H](F)C1)[C@H]2Nc1ncnc2[nH]c(C(F)(F)F)cc12` [EP-0043839, N-((3R,4S)-7-fluoro-3-((S)-3-fluoropyrrolidin-1-yl)chroman-4-yl)-6-(trifluoromethyl)-7H-pyrrolo[2,3-d]pyrimidin-4-amine] were, in that order, 41.3 and 6.32.
The like results for `FC(F)C1CCN([C@H]2COc3ccccc3[C@@H]2Nc2ncnc3[nH]c(C(F)(F)F)cc23)C1` (stereo partly drawn) [EP-0043845, N-((3R,4S)-3-(3-(Difluoromethyl)Pyrrolidin-1-Yl)Chroman-4-Yl)-6-(Trifluoromethyl)-7H-Pyrrolo[2,3-D]Pyrimidin-4-Amine] were, in that order, 95.0 and 7.40.
For `C[C@@H]1CN([C@H]2COc3cc(F)ccc3[C@@H]2Nc2ncnc3c2cc(C(F)(F)F)n3C)CCO1` [EP-0043854, N-((3R,4S)-7-fluoro-3-((R)-2-methylmorpholino)chroman-4-yl)-7-methyl-6-(trifluoromethyl)-7H-pyrrolo[2,3-d]pyrimidin-4-amine], in that order: 99.6 and 6.60.
For `C[C@@H]1CN([C@H]2COc3cccc(F)c3[C@@H]2Nc2ncnc3[nH]c(C(F)(F)F)cc23)CCO1` [EP-0043859, N-((3R,4S)-5-fluoro-3-((R)-2-methylmorpholino)chroman-4-yl)-6-(trifluoromethyl)-7H-pyrrolo[2,3-d]pyrimidin-4-amine], the “Mito-Safety Index” value with SKOV3 cells came to 31.4. The pEC50 in data set [1] is 7.15.
For `C[C@@H]1CN([C@H]2COc3ccc(F)cc3[C@@H]2Nc2ncnc3[nH]c(C(F)(F)F)cc23)CCO1` [EP-0043863, N-((3R,4S)-6-fluoro-3-((R)-2-methylmorpholino)chroman-4-yl)-6-(trifluoromethyl)-7H-pyrrolo[2,3-d]pyrimidin-4-amine], in that order: 40.0 and 6.77.
Consider `FC(F)(F)O[C@H]1CCN([C@H]2COc3ccccc3[C@@H]2Nc2ncnc3[nH]c(C(F)(F)F)cc23)C1` [EP-0043865, N-((3R,4S)-3-((S)-3-(trifluoromethoxy)pyrrolidin-1-yl)chroman-4-yl)-6-(trifluoromethyl)-7H-pyrrolo[2,3-d]pyrimidin-4-amine], for which the “Mito-Safety Index” value with SKOV3 cells came to 44.4. Also, the pEC50 in data set [1] was 7.05.
For `F[C@H]1CCN([C@H]2COc3ccccc3[C@@H]2Nc2nccc3[nH]c(C(F)(F)F)cc23)C1` [EP-0043870, N-((3R,4S)-3-((S)-3-fluoropyrrolidin-1-yl)chroman-4-yl)-2-(trifluoromethyl)-1H-pyrrolo[3,2-c]pyridin-4-amine], in that order: 67.5 and 6.92.
The like results for `FC(F)(F)c1cc2c(N[C@H]3c4ccccc4OC[C@@H]3N3CCCC3)nccc2[nH]1` [EP-0043873, N-((3R,4S)-3-(pyrrolidin-1-yl)chroman-4-yl)-2-(trifluoromethyl)-1H-pyrrolo[3,2-c]pyridin-4-amine] were, in that order, 71.5 and 6.89.
The like results for `FC(F)(F)c1cc2c(N[C@H]3c4ccccc4OC[C@@H]3N3CCOC4(CC4)C3)nccc2[nH]1` [EP-0043895, N-((3R,4S)-3-(4-oxa-7-azaspiro[2.5]octan-7-yl)chroman-4-yl)-2-(trifluoromethyl)-1H-pyrrolo[3,2-c]pyridin-4-amine] were, in that order, 94.7 and 6.77.
